Source: paper PMC12627933, “A First-In-Human Study of the SUMOylation Inhibitor Subasumstat in Patients with Advanced/Metastatic Solid Tumors or Relapsed/Refractory Hematologic Malignancies” (Cancer Research Communications, 2025)
Like-named read-outs stand apart in the source and are kept apart here.

Experiments:
[1] = target: T1, SUMO-activating enzyme (SAE) (Homo sapiens, UniProt Q9UBT2); test: Target engagement: SUMO–subasumstat adduct formation in blood lymphocytes, skin and tumor (flow cytometry, IHC); format: in vivo
T1 construct: from tissue; host or cells: patients' peripheral blood lymphocytes, skin biopsies and tumor biopsies
T1 sequence (Q9UBT2 1-640): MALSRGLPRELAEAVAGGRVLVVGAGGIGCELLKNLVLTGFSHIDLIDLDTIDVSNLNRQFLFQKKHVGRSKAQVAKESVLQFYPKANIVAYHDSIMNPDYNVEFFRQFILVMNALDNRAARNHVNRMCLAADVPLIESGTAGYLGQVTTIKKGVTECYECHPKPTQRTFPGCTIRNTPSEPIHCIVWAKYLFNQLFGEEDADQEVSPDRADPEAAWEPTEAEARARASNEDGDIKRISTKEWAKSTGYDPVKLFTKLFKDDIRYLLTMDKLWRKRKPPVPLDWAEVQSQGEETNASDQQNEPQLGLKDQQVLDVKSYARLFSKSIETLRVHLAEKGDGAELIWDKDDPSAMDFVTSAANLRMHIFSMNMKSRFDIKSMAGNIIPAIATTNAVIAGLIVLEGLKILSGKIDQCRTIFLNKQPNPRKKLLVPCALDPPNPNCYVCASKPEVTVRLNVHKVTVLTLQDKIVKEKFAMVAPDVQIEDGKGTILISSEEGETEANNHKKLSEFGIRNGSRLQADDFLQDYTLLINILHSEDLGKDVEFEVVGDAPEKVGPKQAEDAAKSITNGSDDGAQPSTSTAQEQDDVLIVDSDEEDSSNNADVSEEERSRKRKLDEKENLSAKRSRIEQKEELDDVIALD
T1 sequence (Q9UBE0 1-346 partner): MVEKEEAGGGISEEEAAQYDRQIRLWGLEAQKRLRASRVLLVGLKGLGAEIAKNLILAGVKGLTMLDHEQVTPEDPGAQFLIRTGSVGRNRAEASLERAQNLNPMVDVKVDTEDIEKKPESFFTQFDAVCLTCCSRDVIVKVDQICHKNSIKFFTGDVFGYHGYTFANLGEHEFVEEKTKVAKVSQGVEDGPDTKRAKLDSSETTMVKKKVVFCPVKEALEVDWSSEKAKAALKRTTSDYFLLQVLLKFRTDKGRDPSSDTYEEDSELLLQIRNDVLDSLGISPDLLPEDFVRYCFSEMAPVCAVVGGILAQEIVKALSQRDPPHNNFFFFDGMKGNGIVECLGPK
Procedure: Blood samples for subasumstat–SUMO adduct formation and SUMO2/3 inhibition assessments were collected before dose and at 1, 4, and 8 hours after the infusion on C1D1 and C1D8. Blood samples for additional biomarker analyses were collected before dose on C1D1 and C1D8 and at 4, 8, and 24 hours after infusion on C1D1 and C1D8. Skin biopsies (used as surrogate tissue for solid tumors) were collected at screening and on C1D8 at 2 hours (±30 minutes) after end of infusion, and tumor biopsies were collected at screening and cycle 2 day 8 (C2D8; +7 days; whenever possible). In blood samples, a custom flow cytometry assay was utilized for detecting target engagement and SUMOylated protein levels in lymphocytes (including T-, B-, and NK-cell subsets). The assay included a PE-conjugated antibody specifically recognizing the SUMO–subasumstat adduct (MIL-113, anti–cysteinyl-TAK-981, Epitomics; refs. [14], [15], [22]) and an AF488-conjugated antibody recognizing SUMO2/3 conjugates (MBL International, cat. #M114-3, RRID: AB_592769). Peripheral blood cells were lysed/fixed, permeabilized (BD Biosciences), and stained with MIL-113 and M114-3 and with antibodies against CD45, CD3, CD19, CD16/CD56, and CD14. IHC assays for SUMO–subasumstat adduct and SUMO2/3 inhibition in skin biopsies and tumors were performed using MIL-113 and M114-3 antibodies. Activation of the IFNI pathway was assessed in peripheral blood by analysis of gene expression data (PanCancer IO 360 panel by NanoString for phase I and whole-transcriptome RNA sequencing data for phase II). Type I IFN gene signature was computed using geometric mean of the following genes: CCL2, CXCL10, DDX58, IRF7, ISG15, STAT1, and STAT2. These seven IFNI-regulated genes were selected prior to the trial, based on in vitro studies of the effect of subasumstat on human blood from 10 healthy donors analyzed on the NanoString PanCancer IO 360 panel. Plasma chemokines and cytokines were measured using the MesoScale Discovery platform (pro-inflammatory and chemokine panels, BioAgilytix). For assessment of NK- and T-cell activation, cells were suspended in buffer and incubated with the following monoclonal antibodies: APC-H7 mouse anti–human CD45 (BD Biosciences, cat. #560274), APC mouse anti–human CD69 (BD Biosciences, cat. #555533), BV421 mouse anti–human CD56 (BD Biosciences, cat. #562751), mouse anti–human CD16 PerCP-Cy5.5 (BD Biosciences, cat. #338440), BV510 mouse anti–human CD4 (BD Biosciences, cat. #563094), BV605 mouse anti–human CD8 (BD Biosciences, cat. #564116), and Alexa Fluor 700 anti–mouse CD3 antibody (BioLegend, cat. #100215), prior to assessment by flow cytometry using the BD Scientific FACSCanto flow cytometer (RRID: SCR_018055). Tumor PD-L1 expression level was assessed in paired tumor biopsies using the 22C3 PD-L1 IHC assay; combined positive score (CPS) was calculated for baseline and on-treatment tumor samples. The immune landscape in the tumor microenvironment (TME) was assessed using an integrated RNAscope and 27-marker MultiOmyx immunofluorescence panel.

NK cells and T cells = test: NK- and T-cell activation (CD69+ cells) in peripheral blood by flow cytometry; format: in vivo, human
Procedure: Blood samples for subasumstat–SUMO adduct formation and SUMO2/3 inhibition assessments were collected before dose and at 1, 4, and 8 hours after the infusion on C1D1 and C1D8. Blood samples for additional biomarker analyses were collected before dose on C1D1 and C1D8 and at 4, 8, and 24 hours after infusion on C1D1 and C1D8. Skin biopsies (used as surrogate tissue for solid tumors) were collected at screening and on C1D8 at 2 hours (±30 minutes) after end of infusion, and tumor biopsies were collected at screening and cycle 2 day 8 (C2D8; +7 days; whenever possible). […] Activation of the IFNI pathway was assessed in peripheral blood by analysis of gene expression data (PanCancer IO 360 panel by NanoString for phase I and whole-transcriptome RNA sequencing data for phase II). […] These seven IFNI-regulated genes were selected prior to the trial, based on in vitro studies of the effect of subasumstat on human blood from 10 healthy donors analyzed on the NanoString PanCancer IO 360 panel. Plasma chemokines and cytokines were measured using the MesoScale Discovery platform (pro-inflammatory and chemokine panels, BioAgilytix). […] Tumor PD-L1 expression level was assessed in paired tumor biopsies using the 22C3 PD-L1 IHC assay; combined positive score (CPS) was calculated for baseline and on-treatment tumor samples. […]

[2] = system: MSS colorectal cancer and non-squamous NSCLC; design: method as in ref 18 = [18]; 18. Goel S , Ulahannan SV , Olszanski AJ , LoRusso P , Sanborn RE , Sharma S , . A phase 1b, multicenter, dose-escalation study of subasumstat (TAK-981) in combination with pembrolizumab in patients; settings: in combination with pembrolizumab, cited from earlier work
[3] = system: tumor microenvironment (TME); design: method as in PMID 37389981; settings: intratumor microdosing; cited from earlier work

Cc1sc(C(=O)c2cncnc2N[C@@H]2C[C@H](COS(N)(=O)=O)[C@@H](O)C2)cc1[C@@H]1NCCc2ccc(Cl)cc21 [subasumstat]
Target engagement in tumor samples ([1]; all evaluated tumor samples, 8 patients 90 mg twice weekly (C2D8), 1 melanoma patient 25 mg twice weekly (C1D8)): robust target engagement
Dose level from which SUMO–subasumstat adduct formation was detected ([1]; peripheral blood lymphocytes, C1D1 and C1D8, phase I): ≥ 10 mg
Time to detection of SUMO–subasumstat adduct after end of infusion ([1]; peripheral blood lymphocytes, doses ≥10 mg): ≤ 1 h
Persistence of target engagement ([1]; peripheral blood lymphocytes, twice weekly and once weekly schedules): at least 8 hours
Dose from which adduct formation was observed in skin biopsies ([1]; skin biopsies 2 hours after the C1D8 dose): ≥ 10 mg
Time of peak CD69+ effect after infusion (NK cells and T cells; C1D1 and C1D8): 24 h
Dose from which percentage of CD69+ NK and T cells increased (NK cells and T cells; peripheral blood, both dose schedules and study phases): ≥ 60 mg
Antitumor activity ([2]; MSS colorectal cancer dose-expansion cohort): no activity was observed
Antitumor activity ([2]; relapsed/refractory MSS colorectal cancer and CPI-exposed non-squamous NSCLC, dose-escalation cohort): preliminary antitumor activity
Modulation of the TME [3]: modulate the TME from an immune-suppressive to an immune-permissive status
